Patent publication US20140205537A1, “LRRK2 INHIBITORS” (ZENOBIA THERAPEUTICS, INC., priority 2011, published 2014)

Each compound was assayed against G2019S LRRK2 (Homo sapiens, UniProt Q5S007, G2019S) (assay: DiscoveRx KINOMEscan binding constant (Kd)). Settings: class symbol.
Design: purchased DiscoveRx (KINOMEscan service); host or cells: E. coli BL21-derived host (T7 phage) or HEK-293
Description: Compounds of formulas (II), (I), (I-A), (I-B), (I-C), (I-D), (I-D-1), (I-D-2), (I-E), (I-F), (I-G), (I-H), (I-I), (I-I-1), (I-I-2), (I-J), (I-K), (I-L), (I-M), (I-N), (I-Z-1), (I-Z-2), (I-Z-2-a), (I-Z-2-b), (I-Z-2-c), (I-Z-2-d), (I-Z-3-a), (I-Z-3-b), (I-Z-3-c), or (I-Z-3-d) were tested using DiscoveRx's KINOMEscan™ technology to measure a binding constant (Kd) to wild type and G2019S LRRK2. Kinase-tagged T7 phage strains were prepared in an E. coli host derived from the BL21 strain. E. coli were grown to log-phase and infected with T7 phage and incubated with shaking at 32° C. until lysis. The lysates were centrifuged and filtered to remove cell debris. The remaining kinases were produced in HEK-293 cells and subsequently tagged with DNA for qPCR detection. Streptavidin-coated magnetic beads were treated with biotinylated small molecule ligands for 30 minutes at room temperature to generate affinity resins for kinase assays. The liganded beads were blocked with excess biotin and washed with blocking buffer (SeaBlock (Pierce), 1% BSA, 0.05% Tween 20, 1 mM DTT) to remove unbound ligand and to reduce non-specific binding. Binding reactions were assembled by combining kinases, liganded affinity beads, and test compounds in 1× binding buffer (20% SeaBlock, 0.17×PBS, 0.05% Tween 20, 6 mM DTT). All reactions were performed in polystyrene 96-well plates in a final volume of 0.135 ml. The assay plates were incubated at room temperature with shaking for 1 hour and the affinity beads were washed with wash buffer (lx PBS, 0.05% Tween 20). The beads were then re-suspended in elution buffer (lx PBS, 0.05% Tween 20, 0.5 μM non-biotinylated affinity ligand) and incubated at room temperature with shaking for 30 minutes. The kinase concentration in the eluates was measured by qPCR. An 11-point 3-fold serial dilution of each test compound was prepared in 100% DMSO at 100× final test concentration and subsequently diluted to 1× in the assay (final DMSO concentration=[…]). Most Kds were determined using a compound top concentration=30,000 nM.

Sequence of G2019S LRRK2 (Q5S007 whole entry G2019S): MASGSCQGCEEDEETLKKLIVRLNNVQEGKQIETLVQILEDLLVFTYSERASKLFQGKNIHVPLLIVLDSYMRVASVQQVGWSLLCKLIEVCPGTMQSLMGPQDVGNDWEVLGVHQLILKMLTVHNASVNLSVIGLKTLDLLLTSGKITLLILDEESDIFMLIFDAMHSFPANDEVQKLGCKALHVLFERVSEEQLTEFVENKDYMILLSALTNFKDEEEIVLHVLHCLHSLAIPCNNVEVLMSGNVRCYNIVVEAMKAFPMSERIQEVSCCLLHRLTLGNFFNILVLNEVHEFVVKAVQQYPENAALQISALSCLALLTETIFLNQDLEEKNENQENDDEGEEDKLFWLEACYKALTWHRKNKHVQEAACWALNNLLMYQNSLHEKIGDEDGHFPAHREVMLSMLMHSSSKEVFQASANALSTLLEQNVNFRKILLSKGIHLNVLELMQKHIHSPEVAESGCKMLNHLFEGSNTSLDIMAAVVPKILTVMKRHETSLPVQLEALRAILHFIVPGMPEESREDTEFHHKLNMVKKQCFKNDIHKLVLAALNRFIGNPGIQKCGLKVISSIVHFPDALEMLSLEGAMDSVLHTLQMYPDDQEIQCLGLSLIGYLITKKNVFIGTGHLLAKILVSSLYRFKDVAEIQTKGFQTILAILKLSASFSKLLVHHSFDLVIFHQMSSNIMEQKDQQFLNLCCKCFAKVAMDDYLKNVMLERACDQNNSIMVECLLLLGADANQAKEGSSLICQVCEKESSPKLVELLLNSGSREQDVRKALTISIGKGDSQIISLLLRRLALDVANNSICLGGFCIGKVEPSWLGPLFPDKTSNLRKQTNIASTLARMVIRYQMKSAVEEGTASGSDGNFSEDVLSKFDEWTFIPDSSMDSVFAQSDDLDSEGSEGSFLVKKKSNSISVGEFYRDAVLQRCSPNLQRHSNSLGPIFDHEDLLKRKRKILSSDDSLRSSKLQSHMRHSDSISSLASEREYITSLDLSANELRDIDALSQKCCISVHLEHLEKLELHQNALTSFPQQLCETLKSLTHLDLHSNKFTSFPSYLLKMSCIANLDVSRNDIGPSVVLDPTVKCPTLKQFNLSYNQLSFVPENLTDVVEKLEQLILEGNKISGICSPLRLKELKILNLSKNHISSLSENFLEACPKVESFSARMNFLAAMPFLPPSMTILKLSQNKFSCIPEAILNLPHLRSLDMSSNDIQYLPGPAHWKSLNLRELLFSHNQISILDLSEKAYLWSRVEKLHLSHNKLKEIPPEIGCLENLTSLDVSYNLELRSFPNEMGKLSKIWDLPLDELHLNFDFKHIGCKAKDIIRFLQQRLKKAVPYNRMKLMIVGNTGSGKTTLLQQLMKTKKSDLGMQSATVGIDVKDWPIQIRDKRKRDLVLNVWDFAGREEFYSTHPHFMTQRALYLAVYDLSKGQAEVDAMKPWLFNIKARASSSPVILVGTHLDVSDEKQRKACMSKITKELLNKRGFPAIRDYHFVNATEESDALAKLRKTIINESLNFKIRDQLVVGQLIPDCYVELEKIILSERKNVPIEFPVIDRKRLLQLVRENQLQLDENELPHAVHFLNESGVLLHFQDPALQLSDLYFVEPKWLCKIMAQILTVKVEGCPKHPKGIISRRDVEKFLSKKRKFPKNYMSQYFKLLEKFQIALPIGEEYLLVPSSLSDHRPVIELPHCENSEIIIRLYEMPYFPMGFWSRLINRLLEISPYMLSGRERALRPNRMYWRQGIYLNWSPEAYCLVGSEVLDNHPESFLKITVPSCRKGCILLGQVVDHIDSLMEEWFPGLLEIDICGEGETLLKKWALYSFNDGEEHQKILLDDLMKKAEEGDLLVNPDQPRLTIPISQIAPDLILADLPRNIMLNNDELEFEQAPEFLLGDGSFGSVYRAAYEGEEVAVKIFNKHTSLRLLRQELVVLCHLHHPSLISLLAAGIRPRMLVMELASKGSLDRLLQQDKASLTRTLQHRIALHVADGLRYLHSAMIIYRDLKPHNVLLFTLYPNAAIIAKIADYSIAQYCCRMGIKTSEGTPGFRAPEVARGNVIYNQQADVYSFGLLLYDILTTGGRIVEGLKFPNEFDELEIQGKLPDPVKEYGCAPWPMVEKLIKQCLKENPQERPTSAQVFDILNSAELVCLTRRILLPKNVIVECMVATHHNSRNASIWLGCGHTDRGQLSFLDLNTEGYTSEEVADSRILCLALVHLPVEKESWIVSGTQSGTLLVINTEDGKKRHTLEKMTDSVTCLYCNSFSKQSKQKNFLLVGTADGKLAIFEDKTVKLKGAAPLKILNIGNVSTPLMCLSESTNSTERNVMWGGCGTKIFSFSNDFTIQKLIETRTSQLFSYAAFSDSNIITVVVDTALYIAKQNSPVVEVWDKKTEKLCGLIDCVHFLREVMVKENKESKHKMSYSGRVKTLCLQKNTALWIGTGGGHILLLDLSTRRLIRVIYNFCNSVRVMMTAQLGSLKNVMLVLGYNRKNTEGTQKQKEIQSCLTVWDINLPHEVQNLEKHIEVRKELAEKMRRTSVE

Kd [nM] | Structure (SMILES)
≥ 1000 | CC(C)Oc1ccc2c(c1F)/C(=C/c1cnc(N3CCOCC3)[nH]1)C(=O)N2 [Compound 38, (3Z)-4-fluoro-5-isopropoxy-3-[(2-morpholino-1H-imidazol-5-yl)methylene]indolin-2-one]
≥ 1000 | CCc1nnc(/C=C2\C(=O)Nc3ccc(OC)cc32)[nH]1 [Compound 25, (3Z)-3-[(5-ethyl-4H-1,2,4-triazol-3-yl)methylene]-5-methoxy-indolin-2-one]

Same assay, conditions: numeric value

Kd [nM] | Structure (SMILES)
25 | CC(C)Oc1cc2c(cc1F)NC(=O)/C2=C\c1cnc(C2CCOCC2)[nH]1 [Compound 41, (3Z)-6-fluoro-5-isopropoxy-3-[(2-tetrahydropyran-4-yl-1H-imidazol-5-yl)methylene]indolin-2-one]
22 | C/C(=C1/C(=O)Nc2ccc(OC(C)C)cc21)c1cnc(N2CCOCC2)[nH]1 [Compound 40, (3Z)-5-isopropoxy-3-[1-(2-morpholino-1H-imidazol-5-yl)ethylidene]indolin-2-one]
420 | CC(C)Oc1ccc2c(c1)/C(=C/c1cnc(CN3CCOCC3)[nH]1)C(=O)N2 [Compound 23, (3Z)-5-isopropoxy-3-[[2-(morpholinomethyl)-1H-imidazol-5-yl]methylene]indolin-2-one]
47.5 | O=C1Nc2ccc(OCCF)cc2/C1=C/c1cnc(C2CCOCC2)[nH]1 [Compound 34, (3Z)-5-(2-fluoroethoxy)-3-[(2-tetrahydropyran-4-yl-1H-imidazol-5-yl)methylene]indolin-2-one]
68 | O=C1Nc2ccc(O)cc2/C1=C/c1cnc(C2CCOCC2)[nH]1 [Compound 28, (3Z)-5-hydroxy-3-[(2-tetrahydropyran-4-yl-1H-imidazol-5-yl)methylene]indolin-2-one]
123 | CC(C)Oc1ccc2c(c1)/C(=C/c1ncc(C3CCOCC3)[nH]1)C(=O)N2 [Compound 39, (3Z)-5-isopropoxy-3-[(5-tetrahydropyran-4-yl-1H-imidazol-2-yl)methylene]indolin-2-one]
43 | CC(C)Oc1ccc2c(c1)/C(=C/c1cnc(C3CCN(CCF)CC3)[nH]1)C(=O)N2 [Compound 31, (3Z)-3-[[2-[1-(2-fluoroethyl)-4-piperidyl]-1H-imidazol-5-yl]methylene]-5-isopropoxy-indolin-2-one]
32.5 | CC(C)Cc1ncc(/C=C2\C(=O)Nc3ccc(OC(C)C)cc32)[nH]1 [Compound 22, (3Z)-3-[(2-isobutyl-1H-imidazol-5-yl)methylene]-5-isopropoxy-indolin-2-one]
67 | CC(C)Oc1cc(F)c2c(c1)/C(=C/c1cnc(N3CCOCC3)[nH]1)C(=O)N2 [Compound 36, (3Z)-7-fluoro-5-isopropoxy-3-[(2-morpholino-1H-imidazol-5-yl)methylene]indolin-2-one]
12500 | CC(C)Oc1ccc2c(c1)/C(=C/c1nnc(C(C)C)[nH]1)C(=O)N2 [Compound 26, (3Z)-5-isopropoxy-3-[(5-isopropyl-4H-1,2,4-triazol-3-yl)methylene]indolin-2-one]
34 | CC(C)Oc1cc2c(cc1F)NC(=O)/C2=C\c1cnc(C2CCN(CCF)CC2)[nH]1 [Compound 43, (3Z)-6-fluoro-3-[[2-[1-(2-fluoroethyl)-4-piperidyl]-1H-imidazol-5-yl]methylene]-5-isopropoxy-indolin-2-one]
260 | CC(C)Oc1cc2c(cn1)NC(=O)/C2=C\c1cnc(C2CCOCC2)[nH]1 [Compound 45, (3Z)-5-isopropoxy-3-[(2-tetrahydropyran-4-yl-1H-imidazol-5-yl)methylene]-1H-pyrrolo[2,3-c]pyridin-2-one]

Continued, compound first:

Structure (SMILES) | Kd [nM]
CCN1CCN(c2ncc(/C=C3\C(=O)Nc4cc(F)c(OC(C)C)cc43)[nH]2)CC1 [Compound 44, (3Z)-3-[[2-(4-ethylpiperazin-1-yl)-1H-imidazol-5-yl]methylene]-6-fluoro-5-isopropoxy-indolin-2-one] | 41
CC(C)Oc1cc2c(cc1F)NC(=O)/C2=C\c1cnc(N2CCOCC2)[nH]1 [Compound 37, (3Z)-6-fluoro-5-isopropoxy-3-[(2-morpholino-1H-imidazol-5-yl)methylene]indolin-2-one] | 24
CC(C)Oc1ccc2c(c1)/C(=C/c1cnc(N(C)C)[nH]1)C(=O)N2 [Compound 35, (3Z)-3-[[2-(dimethylamino)-1H-imidazol-5-yl]methylene]-5-isopropoxy-indolin-2-one] | 32
O=C1Nc2ccc(Cl)cc2/C1=C/c1cnc(C2CCOCC2)[nH]1 [Compound 32, (3Z)-5-chloro-3-[(2-tetrahydropyran-4-yl-1H-imidazol-5-yl)methylene]indolin-2-one] | 59
COCCc1ncc(/C=C2\C(=O)Nc3ccc(OC)cc32)[nH]1 [Compound 24, (3Z)-5-methoxy-3-[[2-(2-methoxyethyl)-1H-imidazol-5-yl]methylene]indolin-2-one] | 450
COc1ccc2c(c1)/C(=C/c1cnc(-c3c(F)cccc3F)[nH]1)C(=O)N2 [Compound 20, (3Z)-3-[[2-(2,6-difluorophenyl)-1H-imidazol-5-yl]methylene]-5-methoxy-indolin-2-one] | 150
CC(C)Oc1ccc2c(n1)/C(=C/c1cnc(C3CCOCC3)[nH]1)C(=O)N2 [Compound 46, (3Z)-5-isopropoxy-3-[(2-tetrahydropyran-4-yl-1H-imidazol-5-yl)methylene]-1H-pyrrolo[3,2-b]pyridin-2-one] | 250
CC(C)Oc1ccc2c(c1)/C(=C/c1cnc(C3CCOCC3)[nH]1)C(=O)N2 [Compound 30, (3Z)-5-isopropoxy-3-[(2-tetrahydropyran-4-yl-1H-imidazol-5-yl)methylene]indolin-2-one] | 28
CCc1ccc2c(c1)/C(=C/c1cnc(C3CCOCC3)[nH]1)C(=O)N2 [Compound 29, (3Z)-5-ethyl-3-[(2-tetrahydropyran-4-yl-1H-imidazol-5-yl)methylene]indolin-2-one] | 54
C/C(=C1/C(=O)Nc2cc(F)c(OC(C)C)cc21)c1cnc(N2CCOCC2)[nH]1 [Compound 42, (3Z)-6-fluoro-5-isopropoxy-3-[1-(2-morpholino-1H-imidazol-5-yl)ethylidene]indolin-2-one] | 57
O=C1Nc2ccc(Cl)cc2/C1=C/c1cnc(C2CCN(CCF)CC2)[nH]1 [Compound 33, (3Z)-5-chloro-3-[[2-[1-(2-fluoroethyl)-4-piperidyl]-1H-imidazol-5-yl]methylene]indolin-2-one] | 150
CC(C)Oc1ccc2c(c1)/C(=C/c1cnc(C(C)C)[nH]1)C(=O)N2 [Compound 21, (3Z)-5-isopropoxy-3-[(2-isopropyl-1H-imidazol-5-yl)methylene]indolin-2-one] | 16.5
CC(C)Oc1ccc2c(c1)/C(=C/c1cnc(N3CCOCC3)[nH]1)C(=O)N2 [Compound 27, (3Z)-5-isopropoxy-3-[(2-morpholino-1H-imidazol-5-yl)methylene]indolin-2-one] | 15.5
CCc1nnc(/C=C2\C(=O)Nc3ccc(OC)cc32)[nH]1 [Compound 25, (3Z)-3-[(5-ethyl-4H-1,2,4-triazol-3-yl)methylene]-5-methoxy-indolin-2-one] | > 30000
